From patent US4328334A, “11-Aza-10-deoxo-10-dihydroerythromycin A and derivatives thereof as well as a process for their preparation” (PLIVA Pharmaceutical and Chemical Works, priority 1979, dated 1982)
≈ marks a conversion by molar mass, not a printed value. Where two headings read alike, the source gives them in different places.

Assays:
[1] = tested on: Staphylococcus epidermidis ATCC 12228; experiment: in vitro minimum inhibitory concentration, Staphylococcus epidermidis ATCC 12228; type: cell-based; details: ATCC12228; in vitro, Staphylococcus epidermidis ATCC 12228; read-out: minimum inhibitory concentrations (MIC)
[2] = tested on: Staphylococcus aureus ATCC 6538-P; experiment: stability in acid medium: MIC after exposure to 1 N HCl; type: cell-based; details: for stability in acid medium compared with erythromycin A / stability in acid medium compared with erythromycin A oxime: pH 1.2, 30 minutes to 6 hours; for MIC: ATCC6538, pH 1.2, Staphylococcus aureus ATCC 6538-P
[3] = tested on: Bacillus cereus var. mycoides ATCC 11778; experiment: microbe, parasite or virus in culture; type: cell-based; details: ATCC11778, read-out: minimum inhibitory concentrations (MIC)
[4] = tested on: Pseudomonas aeruginosa NCTC 10490; experiment: in vitro minimum inhibitory concentration, Pseudomonas aeruginosa NCTC 10490; type: cell-based; details: NCTC10490; in vitro, Pseudomonas aeruginosa NCTC 10490; read-out: minimum inhibitory concentrations (MIC)
[5] = tested on: Klebsiella pneumoniae ATCC 10031; experiment: in vitro minimum inhibitory concentration, Klebsiella pneumoniae ATCC 10031; type: cell-based; details: ATCC10031; in vitro, Klebsiella pneumoniae ATCC 10031; read-out: minimum inhibitory concentrations (MIC)
[6] = tested on: Staphylococcus aureus ATCC 6538-P; experiment: in vitro minimum inhibitory concentration, Staphylococcus aureus ATCC 6538-P; type: cell-based; details: ATCC6538; in vitro, Staphylococcus aureus ATCC 6538-P; read-out: minimum inhibitory concentrations (MIC)
[7] = tested on: Shigella flexneri II-1819/C; experiment: in vitro minimum inhibitory concentration, Shigella flexneri II-1819/C; type: cell-based; details: II1819/C, read-out: minimum inhibitory concentrations (MIC)
Protocol: In order to examine the antibacterial action, some new compounds were tested in vitro on a series of gram-positive and gram-negative micro-organisms. The results are shown in Table 1 as minimum inhibitory concentrations (MIC) in mcg/ml in comparision with erythromycin A erythromycin A oxime.

[8] = acute i.v. toxicity in albino mice (Litchfield-Wilcoxon); details: mouse, in vivo, iv; acute i.v., albino mice
albino mice = experiment: as above; details: mouse, in vivo, iv
[9] = tested on: Streptococcus faecalis ATCC 8043; experiment: in vitro minimum inhibitory concentration, Streptococcus faecalis ATCC 8043; type: cell-based; details: Enterococcus faecalis
[10] = tested on: Bacillus subtilis ATCC 6633; experiment: in vitro minimum inhibitory concentration, Bacillus subtilis ATCC 6633; type: cell-based; details: ATCC6633; in vitro, Bacillus subtilis ATCC 6633; read-out: minimum inhibitory concentrations (MIC)
Salmonella panama = experiment: in vitro minimum inhibitory concentration, Salmonella panama; type: cell-based; details: Salmonella enterica; in vitro, Salmonella panama; read-out: minimum inhibitory concentrations (MIC)
[11] = tested on: Brucella bronchiseptica ATCC 4617; experiment: microbe, parasite or virus in culture; type: cell-based; details: Bordetella bronchiseptica, ATCC4617, read-out: minimum inhibitory concentrations (MIC)
[12] = tested on: Corynebacterium xerosis NCTC 9755; experiment: in vitro minimum inhibitory concentration, Corynebacterium xerosis NCTC 9755; type: cell-based; details: NCTC9755; in vitro, Corynebacterium xerosis NCTC 9755; read-out: minimum inhibitory concentrations (MIC)
[13] = tested on: Escherichia coli ATCC 10536; experiment: in vitro minimum inhibitory concentration, Escherichia coli ATCC 10536; type: cell-based; details: ATCC10536, read-out: minimum inhibitory concentrations (MIC)
[14] = tested on: Micrococcus flavus ATCC 10240; experiment: in vitro minimum inhibitory concentration, Micrococcus flavus ATCC 10240; type: cell-based
Sarcina lutea ATCC 9341 = experiment: in vitro minimum inhibitory concentration, Sarcina lutea ATCC 9341; type: cell-based; details: Micrococcus luteus, ATCC9341, read-out: minimum inhibitory concentrations (MIC)
[15] = pKb in dimethyl formamide-water; type: physicochemical; details: dmf (66% v/v)-water; dimethyl formamide (66% v/v)-water
[16] = exposure time 1/2 hour, 1 N HCl
[17] = ATCC8043, in vitro, Streptococcus faecalis ATCC 8043, read-out: minimum inhibitory concentrations (MIC)
[18] = ATCC10240, in vitro, Micrococcus flavus ATCC 10240, read-out: minimum inhibitory concentrations (MIC)

SMILES	MIC [1] [µg/mL]	stability in acid medium compared with erythromycin A ([2]; 1 N HCl)	stability in acid medium compared with erythromycin A oxime ([2]; 1 N HCl)	MIC ([2]; exposure time 0 hours) [µg/mL]	MIC [2, 16] [µg/mL]	MIC ([2]; exposure time 1 hour, 1 N HCl) [µg/mL]	MIC ([2]; exposure time 2 hours, 1 N HCl) [µg/mL]	MIC ([2]; exposure time 3 hours, 1 N HCl) [µg/mL]	MIC ([2]; exposure time 6 hours, 1 N HCl) [µg/mL]	MIC [3] [µg/mL]	MIC [6] [µg/mL]	MIC [9, 17] [µg/mL]	MIC [10] [µg/mL]	MIC [14, 18] [µg/mL]	MIC (Sarcina lutea ATCC 9341) [µg/mL]	other results
CC[C@H]1OC(=O)[C@H](C)[C@@H](O[C@H]2C[C@@](C)(OC)[C@@H](O)[C@H](C)O2)[C@H](C)[C@@H](O[C@@H]2O[C@H](C)C[C@H](N(C)C)[C@H]2O)[C@](C)(O)C[C@@H](C)CN[C@H](C)[C@@H](O)[C@]1(C)O [Compound I, 11-aza-4-0-cladinosyl-6-0-desosaminyl-15-ethyl-7,13,14-trihydroxy-3,5,7,9,12,14-hexamethyloxacyclopentadecane-2-one]	0.5 (≈ 0.68 µM)	significantly more stable than erythromycin A	within the range of that of the starting antibioticum erythromycin A oxime	0.5 (≈ 0.68 µM)	0.5 (≈ 0.68 µM)	0.5 (≈ 0.68 µM)	1 (≈ 1.36 µM)	1 (≈ 1.36 µM)	1 (≈ 1.36 µM)	0.5 (≈ 0.68 µM)	0.5 (≈ 0.68 µM)	0.5 (≈ 0.68 µM)	5 (≈ 6.8 µM)	0.05 (≈ 0.068 µM)	0.05 (≈ 0.068 µM)	MIC [4]: 50 µg/mL (≈ 68 µM); MIC [5]: 10 µg/mL (≈ 13.6 µM); MIC [7]: 10 µg/mL (≈ 13.6 µM); LD50 [8]: 110 mg/kg; acute i.v. toxicity compared with erythromycin A oxime (albino mice): less toxic that the starting erythromycin A oxime; MIC (Salmonella panama): 50 µg/mL (≈ 68 µM); MIC [11]: 1 µg/mL (≈ 1.36 µM); MIC [12]: 1 µg/mL (≈ 1.36 µM); MIC [13]: 10 µg/mL (≈ 13.6 µM)
CC[C@H]1OC(=O)[C@H](C)[C@@H](O[C@H]2C[C@@](C)(OC)[C@@H](OC(C)=O)[C@H](C)O2)[C@H](C)[C@@H](O[C@@H]2O[C@H](C)C[C@H](N(C)C)[C@H]2OC(C)=O)[C@](C)(O)C[C@@H](C)CN(C(C)=O)[C@H](C)[C@@H](O)[C@]1(C)O [Compound III, 2',4"-N-triacetyl-11-aza-10-deoxo-10-dihydroerythromycin A]	200 (≈ 232 µM)	–	–	–	–	–	–	–	–	200 (≈ 232 µM)	150 (≈ 174 µM)	125 (≈ 145 µM)	175 (≈ 203 µM)	50 (≈ 58.1 µM)	10 (≈ 11.6 µM)	–
CC[C@H]1OC(=O)[C@H](C)[C@@H](O[C@H]2C[C@@](C)(OC)[C@@H](OC(C)=O)[C@H](C)O2)[C@H](C)[C@@H](O[C@@H]2O[C@H](C)C[C@H](N(C)C)[C@H]2OC(C)=O)[C@](C)(O)C[C@@H](C)CN(C(C)=O)[C@H](C)[C@@H](OC(C)=O)[C@]1(C)O [Compound IV, 2',4",13,N-tetraacetyl-11-aza-10-deoxo-10-dihydroerythromycin A]	200 (≈ 221 µM)	–	–	–	–	–	–	–	–	175 (≈ 194 µM)	200 (≈ 221 µM)	–	200 (≈ 221 µM)	–	10 (≈ 11.1 µM)	MIC ([9]; ATCC8043, read-out: minimum inhibitory concentrations (MIC)): 175 µg/mL (≈ 194 µM); MIC ([14]; Micrococcus flavus, ATCC10240, read-out: minimum inhibitory concentrations (MIC)): 175 µg/mL (≈ 194 µM)
CCC(=O)N1C[C@H](C)C[C@@](C)(O)[C@H](O[C@@H]2O[C@H](C)C[C@H](N(C)C)[C@H]2O)[C@@H](C)[C@H](O[C@H]2C[C@@](C)(OC)[C@@H](O)[C@H](C)O2)[C@@H](C)C(=O)O[C@H](CC)[C@@](C)(O)[C@H](O)[C@H]1C [Compound V, N-propionyl-11-aza-10-deoxo-10-dihydroerythroycin A]	–	–	–	–	–	–	–	–	–	–	–	–	–	–	–	pKa [15]: 8.6
CC[C@H]1OC(=O)[C@H](C)[C@@H](O[C@H]2C[C@@](C)(OC)[C@@H](O)[C@H](C)O2)[C@H](C)[C@@H](O[C@@H]2O[C@H](C)C[C@H](N(C)C)[C@H]2O)[C@](C)(O)C[C@@H](C)CN[C@H](C)[C@H]2OC(=O)O[C@@]21C [Compound VI, 11-aza-10-deoxo-10-dihydroerythromycin A cyclic 13,14-carbonate]	2.5 (≈ 3.29 µM)	significantly more stable than erythromycin A	within the range of that of the starting antibioticum erythromycin A oxime	1 (≈ 1.31 µM)	1 (≈ 1.31 µM)	1 (≈ 1.31 µM)	2.5 (≈ 3.29 µM)	2.5 (≈ 3.29 µM)	2.5 (≈ 3.29 µM)	2.5 (≈ 3.29 µM)	1 (≈ 1.31 µM)	0.05 (≈ 0.0657 µM)	0.5 (≈ 0.657 µM)	0.5 (≈ 0.657 µM)	0.1 (≈ 0.131 µM)	–
